Assay results published in the NIST ThermoML archive (doi:10.1021/je201289w).
± gives the expanded uncertainty stated by the source.

Test: refractive index (Na D-line) (dimensionless)
Conditions: 318.15 K; 101.33 kPa; Liquid; Standard Abbe refractometry

Compound | refractive index
CCn1cc[n+](C)c1.O=S(=O)([O-])O [1-ethyl-3-methylimidazolium hydrogen sulfate] | 1.49269 ± 0.00061
CCn1cc[n+](C)c1.CS(=O)(=O)[O-] [1-ethyl-3-methylimidazolium methanesulfonate] | 1.49039 ± 0.00063
CCn1cc[n+](C)c1.N#C[B-](C#N)(C#N)C#N [1-ethyl-3-methylimidazolium tetracyanoborate] | 1.44081 ± 0.00066
CCn1cc[n+](C)c1.F[B-](F)(F)F [1-ethyl-3-methylimidazolium tetrafluoroborate] | 1.4069 ± 0.00061
CCn1cc[n+](C)c1.N#C[S-] [1-ethyl-3-methylimidazolium thiocyanate] | 1.54557 ± 0.00064

Same assay, conditions: 323.15 K; 101.33 kPa; Liquid; Standard Abbe refractometry

Compound | refractive index
CCCCn1cc[n+](C)c1.O=S(=O)([N-]S(=O)(=O)C(F)(F)C(F)(F)C(F)(F)C(F)(F)F)C(F)(F)C(F)(F)C(F)(F)C(F)(F)F | 1.38078 ± 0.00064
CCC[N+]1(C)CCCC1.O=S(=O)([N-]S(=O)(=O)C(F)(F)F)C(F)(F)F | 1.41389 ± 0.00063
CCn1cc[n+](C)c1.O=S(=O)([N-]S(=O)(=O)C(F)(F)F)C(F)(F)F | 1.41597 ± 0.00063
CCn1cc[n+](C)c1.N#CN=C=[N-] [1-ethyl-3-methylimidazolium dicyanamide] | 1.50502 ± 0.00064
CCOS(=O)(=O)[O-].CCn1cc[n+](C)c1 [1-ethyl-3-methylimidazolium ethyl sulfate] | 1.47262 ± 0.00062
CCn1cc[n+](C)c1.O=S(=O)([O-])O [1-ethyl-3-methylimidazolium hydrogen sulfate] | 1.49161 ± 0.00061
CCn1cc[n+](C)c1.CS(=O)(=O)[O-] [1-ethyl-3-methylimidazolium methanesulfonate] | 1.48905 ± 0.00063
CCn1cc[n+](C)c1.N#C[B-](C#N)(C#N)C#N [1-ethyl-3-methylimidazolium tetracyanoborate] | 1.43913 ± 0.00066
CCn1cc[n+](C)c1.F[B-](F)(F)F [1-ethyl-3-methylimidazolium tetrafluoroborate] | 1.4057 ± 0.00061
CCn1cc[n+](C)c1.N#C[S-] [1-ethyl-3-methylimidazolium thiocyanate] | 1.54409 ± 0.00064

Same assay, conditions: 328.15 K; 101.33 kPa; Liquid; Standard Abbe refractometry

Compound | refractive index
CCCCn1cc[n+](C)c1.O=S(=O)([N-]S(=O)(=O)C(F)(F)C(F)(F)C(F)(F)C(F)(F)F)C(F)(F)C(F)(F)C(F)(F)C(F)(F)F | 1.3793 ± 0.00064
CCC[N+]1(C)CCCC1.O=S(=O)([N-]S(=O)(=O)C(F)(F)F)C(F)(F)F | 1.41252 ± 0.00063
CCn1cc[n+](C)c1.O=S(=O)([N-]S(=O)(=O)C(F)(F)F)C(F)(F)F | 1.41458 ± 0.00063
CCn1cc[n+](C)c1.N#CN=C=[N-] [1-ethyl-3-methylimidazolium dicyanamide] | 1.50351 ± 0.00065
CCOS(=O)(=O)[O-].CCn1cc[n+](C)c1 [1-ethyl-3-methylimidazolium ethyl sulfate] | 1.4713 ± 0.00063
CCn1cc[n+](C)c1.O=S(=O)([O-])O [1-ethyl-3-methylimidazolium hydrogen sulfate] | 1.49052 ± 0.00061
CCn1cc[n+](C)c1.CS(=O)(=O)[O-] [1-ethyl-3-methylimidazolium methanesulfonate] | 1.48768 ± 0.00063
CCn1cc[n+](C)c1.N#C[B-](C#N)(C#N)C#N [1-ethyl-3-methylimidazolium tetracyanoborate] | 1.43745 ± 0.00066
CCn1cc[n+](C)c1.F[B-](F)(F)F [1-ethyl-3-methylimidazolium tetrafluoroborate] | 1.40452 ± 0.00062
CCn1cc[n+](C)c1.N#C[S-] [1-ethyl-3-methylimidazolium thiocyanate] | 1.54263 ± 0.00064

Same assay, conditions: 333.15 K; 101.33 kPa; Liquid; Standard Abbe refractometry

Compound | refractive index
CCCCn1cc[n+](C)c1.O=S(=O)([N-]S(=O)(=O)C(F)(F)C(F)(F)C(F)(F)C(F)(F)F)C(F)(F)C(F)(F)C(F)(F)C(F)(F)F | 1.37783 ± 0.00064
CCC[N+]1(C)CCCC1.O=S(=O)([N-]S(=O)(=O)C(F)(F)F)C(F)(F)F | 1.41119 ± 0.00063
CCn1cc[n+](C)c1.O=S(=O)([N-]S(=O)(=O)C(F)(F)F)C(F)(F)F | 1.41319 ± 0.00063
CCn1cc[n+](C)c1.N#CN=C=[N-] [1-ethyl-3-methylimidazolium dicyanamide] | 1.50191 ± 0.00065
CCOS(=O)(=O)[O-].CCn1cc[n+](C)c1 [1-ethyl-3-methylimidazolium ethyl sulfate] | 1.46994 ± 0.00063
CCn1cc[n+](C)c1.O=S(=O)([O-])O [1-ethyl-3-methylimidazolium hydrogen sulfate] | 1.48944 ± 0.00061
CCn1cc[n+](C)c1.CS(=O)(=O)[O-] [1-ethyl-3-methylimidazolium methanesulfonate] | 1.48638 ± 0.00063
CCn1cc[n+](C)c1.N#C[B-](C#N)(C#N)C#N [1-ethyl-3-methylimidazolium tetracyanoborate] | 1.43578 ± 0.00066
CCn1cc[n+](C)c1.F[B-](F)(F)F [1-ethyl-3-methylimidazolium tetrafluoroborate] | 1.40327 ± 0.00061
CCn1cc[n+](C)c1.N#C[S-] [1-ethyl-3-methylimidazolium thiocyanate] | 1.54119 ± 0.00064

Same assay, conditions: 338.15 K; 101.33 kPa; Liquid; Standard Abbe refractometry

Compound | refractive index
CCCCn1cc[n+](C)c1.O=S(=O)([N-]S(=O)(=O)C(F)(F)C(F)(F)C(F)(F)C(F)(F)F)C(F)(F)C(F)(F)C(F)(F)C(F)(F)F | 1.37638 ± 0.00063
CCC[N+]1(C)CCCC1.O=S(=O)([N-]S(=O)(=O)C(F)(F)F)C(F)(F)F | 1.40986 ± 0.00063
CCn1cc[n+](C)c1.O=S(=O)([N-]S(=O)(=O)C(F)(F)F)C(F)(F)F | 1.41177 ± 0.00063
CCn1cc[n+](C)c1.N#CN=C=[N-] [1-ethyl-3-methylimidazolium dicyanamide] | 1.5003 ± 0.00065
CCOS(=O)(=O)[O-].CCn1cc[n+](C)c1 [1-ethyl-3-methylimidazolium ethyl sulfate] | 1.4685 ± 0.00063
CCn1cc[n+](C)c1.O=S(=O)([O-])O [1-ethyl-3-methylimidazolium hydrogen sulfate] | 1.48836 ± 0.00061
CCn1cc[n+](C)c1.CS(=O)(=O)[O-] [1-ethyl-3-methylimidazolium methanesulfonate] | 1.48498 ± 0.00063
CCn1cc[n+](C)c1.N#C[B-](C#N)(C#N)C#N [1-ethyl-3-methylimidazolium tetracyanoborate] | 1.43412 ± 0.00065
CCn1cc[n+](C)c1.F[B-](F)(F)F [1-ethyl-3-methylimidazolium tetrafluoroborate] | 1.40211 ± 0.00061
CCn1cc[n+](C)c1.N#C[S-] [1-ethyl-3-methylimidazolium thiocyanate] | 1.53973 ± 0.00063

Same assay, conditions: 343.15 K; 101.33 kPa; Liquid; Standard Abbe refractometry

Compound | refractive index
CCCCn1cc[n+](C)c1.O=S(=O)([N-]S(=O)(=O)C(F)(F)C(F)(F)C(F)(F)C(F)(F)F)C(F)(F)C(F)(F)C(F)(F)C(F)(F)F | 1.37496 ± 0.00063
CCC[N+]1(C)CCCC1.O=S(=O)([N-]S(=O)(=O)C(F)(F)F)C(F)(F)F | 1.40853 ± 0.00063
CCn1cc[n+](C)c1.O=S(=O)([N-]S(=O)(=O)C(F)(F)F)C(F)(F)F | 1.41037 ± 0.00063
CCn1cc[n+](C)c1.N#CN=C=[N-] [1-ethyl-3-methylimidazolium dicyanamide] | 1.49865 ± 0.00065
CCOS(=O)(=O)[O-].CCn1cc[n+](C)c1 [1-ethyl-3-methylimidazolium ethyl sulfate] | 1.46723 ± 0.00062
CCn1cc[n+](C)c1.O=S(=O)([O-])O [1-ethyl-3-methylimidazolium hydrogen sulfate] | 1.48727 ± 0.0006
CCn1cc[n+](C)c1.CS(=O)(=O)[O-] [1-ethyl-3-methylimidazolium methanesulfonate] | 1.48367 ± 0.00063
CCn1cc[n+](C)c1.N#C[B-](C#N)(C#N)C#N [1-ethyl-3-methylimidazolium tetracyanoborate] | 1.43248 ± 0.00065
CCn1cc[n+](C)c1.F[B-](F)(F)F [1-ethyl-3-methylimidazolium tetrafluoroborate] | 1.40093 ± 0.00061
CCn1cc[n+](C)c1.N#C[S-] [1-ethyl-3-methylimidazolium thiocyanate] | 1.53831 ± 0.00063

Same assay, conditions: 348.15 K; 101.33 kPa; Liquid; Standard Abbe refractometry

Compound | refractive index
CCCCn1cc[n+](C)c1.O=S(=O)([N-]S(=O)(=O)C(F)(F)C(F)(F)C(F)(F)C(F)(F)F)C(F)(F)C(F)(F)C(F)(F)C(F)(F)F | 1.3735 ± 0.00064
CCC[N+]1(C)CCCC1.O=S(=O)([N-]S(=O)(=O)C(F)(F)F)C(F)(F)F | 1.40718 ± 0.00062
CCn1cc[n+](C)c1.O=S(=O)([N-]S(=O)(=O)C(F)(F)F)C(F)(F)F | 1.40902 ± 0.00063
CCn1cc[n+](C)c1.N#CN=C=[N-] [1-ethyl-3-methylimidazolium dicyanamide] | 1.49708 ± 0.00064
CCOS(=O)(=O)[O-].CCn1cc[n+](C)c1 [1-ethyl-3-methylimidazolium ethyl sulfate] | 1.46596 ± 0.00062
CCn1cc[n+](C)c1.O=S(=O)([O-])O [1-ethyl-3-methylimidazolium hydrogen sulfate] | 1.48623 ± 0.00061
CCn1cc[n+](C)c1.CS(=O)(=O)[O-] [1-ethyl-3-methylimidazolium methanesulfonate] | 1.4823 ± 0.00063
CCn1cc[n+](C)c1.N#C[B-](C#N)(C#N)C#N [1-ethyl-3-methylimidazolium tetracyanoborate] | 1.43085 ± 0.00065
CCn1cc[n+](C)c1.F[B-](F)(F)F [1-ethyl-3-methylimidazolium tetrafluoroborate] | 1.39975 ± 0.00061
CCn1cc[n+](C)c1.N#C[S-] [1-ethyl-3-methylimidazolium thiocyanate] | 1.53687 ± 0.00063

Same assay, conditions: 353.15 K; 101.33 kPa; Liquid; Standard Abbe refractometry

Compound | refractive index
CCCCn1cc[n+](C)c1.O=S(=O)([N-]S(=O)(=O)C(F)(F)C(F)(F)C(F)(F)C(F)(F)F)C(F)(F)C(F)(F)C(F)(F)C(F)(F)F | 1.37206 ± 0.00063
CCC[N+]1(C)CCCC1.O=S(=O)([N-]S(=O)(=O)C(F)(F)F)C(F)(F)F | 1.40589 ± 0.00062
CCn1cc[n+](C)c1.O=S(=O)([N-]S(=O)(=O)C(F)(F)F)C(F)(F)F | 1.4076 ± 0.00063
CCn1cc[n+](C)c1.N#CN=C=[N-] [1-ethyl-3-methylimidazolium dicyanamide] | 1.49557 ± 0.00064
CCOS(=O)(=O)[O-].CCn1cc[n+](C)c1 [1-ethyl-3-methylimidazolium ethyl sulfate] | 1.46468 ± 0.00062
CCn1cc[n+](C)c1.O=S(=O)([O-])O [1-ethyl-3-methylimidazolium hydrogen sulfate] | 1.48512 ± 0.00061
CCn1cc[n+](C)c1.CS(=O)(=O)[O-] [1-ethyl-3-methylimidazolium methanesulfonate] | 1.48095 ± 0.00063
CCn1cc[n+](C)c1.N#C[B-](C#N)(C#N)C#N [1-ethyl-3-methylimidazolium tetracyanoborate] | 1.42922 ± 0.00065
CCn1cc[n+](C)c1.F[B-](F)(F)F [1-ethyl-3-methylimidazolium tetrafluoroborate] | 1.39858 ± 0.00061
CCn1cc[n+](C)c1.N#C[S-] [1-ethyl-3-methylimidazolium thiocyanate] | 1.53545 ± 0.00063
